ChEMBL document CHEMBL3352083, “Antibacterial activity of novel benzopolycyclic amines” (Bioorg Med Chem, 2015)
Converted amounts (≈) assume the structure as drawn. The source made the active and inactive calls. The rule behind the calls is not given here.

Experiments:
Staphylococcus aureus [1] = assay: Antimicrobial activity against Staphylococcus aureus CECT 86 ATCC 12600 incubated for 18 hrs by microplate reader based assay; type: functional; details: CECT 86 ATCC 12600, 18 h; for MIC: read-out: MIC100
Pseudomonas aeruginosa = assay: Antimicrobial activity against Pseudomonas aeruginosa PAO1 CECT 4122 ATCC 15692 incubated for 18 hrs by microplate reader based assay; type: functional; details: for MIC: read-out: MIC100
[2] = Selectivity index, ratio of CC50 for macrophages (unknown origin) to MIC50 for Staphylococcus aureus CECT 86 ATCC 12600; type: functional
[3] = Toxicity against macrophages (unknown origin) assessed as reduction in cell viability after 24 to 48 hrs by MTT assay; type: cell-based, Macrophage
[4] = Selectivity index, ratio of CC50 for macrophages (unknown origin) to MIC50 for Enterococcus faecalis CECT 481 ATCC 19433; type: functional
[5] = Antimicrobial activity against Enterococcus faecalis CECT 481 ATCC 19433 incubated for 18 hrs by microplate reader based assay; type: functional, Enterococcus faecalis ATCC 19433; details: CECT 481, 18 h
[6] = tested on: Staphylococcus epidermidis; assay: Antimicrobial activity against Staphylococcus epidermidis CECT 231 ATCC 1798 incubated for 18 hrs by microplate reader based assay; type: functional; details: CECT 231 ATCC 1798, 18 h
[7] = Selectivity index, ratio of CC50 for macrophages (unknown origin) to MIC50 for Streptococcus mutans CECT 479 ATCC 25175; type: functional
[8] = Antimicrobial activity against Streptococcus mutans CECT 479 ATCC 25175 incubated for 18 hrs by microplate reader based assay; type: functional, Streptococcus mutans ATCC 25175; details: CECT 479, 18 h
[9] = Selectivity index, ratio of CC50 for macrophages (unknown origin) to MIC50 for Staphylococcus epidermidis CECT 231 ATCC 1798; type: functional
Staphylococcus aureus [10] = assay: Antimicrobial activity against methicillin-resistant Staphylococcus aureus incubated for 18 hrs by microplate reader based assay; type: functional
Burkholderia cenocepacia = assay: Antimicrobial activity against Burkholderia cenocepacia J2315 incubated for 18 hrs by microplate reader based assay; type: functional; details: J2315, 18 h
[11] = Selectivity index, ratio of CC50 for macrophages (unknown origin) to MIC50 for methicillin-resistant Staphylococcus aureus; type: functional
Staphylococcus aureus [12] = assay: Anti-biofilm activity against Staphylococcus aureus CECT 86 ATCC 12600 incubated for 24 to 48 hrs; type: functional
Staphylococcus aureus [13] = assay: Bacteriolytic activity against Staphylococcus aureus CECT 86 ATCC 12600 at 36 uM incubated for 3 hrs by live/dead assay; type: functional, organism-based
[14] = PAO1 CECT 4122 ATCC 15692, 18 h

| Compound | MIC50 (Staphylococcus aureus [1]) | MIC50 (Pseudomonas aeruginosa) | MIC (Staphylococcus aureus [1]) | also measured |
| --- | --- | --- | --- | --- |
| CN(Cc1ccccc1)C12CC3CC(CC(C1)c1ccccc13)O2 | > 1000 µM | inactive |  |  |
| NC12CC3CC(F)(CC(C1)c1cc([N+](=O)[O-])ccc13)C2 (stereo not given) | 125 µM (≈ 34.5 µg/mL) |  | < 312 µM |  |
| c1ccc(CN(Cc2ccccc2)C23CC4CC(CC(C2)c2ccccc24)O3)cc1 | > 1000 µM | inactive |  |  |
| CC12CC3CC(NCC(N)=O)(CC(C1)c1ccccc13)C2 | > 1000 µM | inactive |  |  |
| CN(C)C12CC3CC(C1)c1ccccc1C(C3)C2 | 304 µM (≈ 73.4 µg/mL) | inactive | < 625 µM | Selectivity Index [2]: 0.15; CC50 [3]: 44.5 µM |
| CC(=O)NC12CC3CC(C)(CC(C1)c1ccccc13)O2 | > 1000 µM | inactive |  |  |
| CC12CC3CC(NCc4ccccc4)(CC(C1)c1ccccc13)C2 | > 1000 µM | inactive |  |  |
| O=C(O)c1cn(C2CC2)c2cc(N3CCNCC3)c(F)cc2c1=O [CIPROFLOXACIN] | 0.3 µM (≈ 0.0994 µg/mL) |  |  | MIC50 (Pseudomonas aeruginosa; [14]): 1.2 µM (≈ 0.398 µg/mL) |
| c1ccc(CNC23CC4CC(CC(C2)c2ccccc24)O3)cc1 | > 1000 µM | inactive |  |  |
| CN(C)C12CC3CC(F)(CC(C1)c1cc([N+](=O)[O-])ccc13)C2 (stereo not given) | < 425 µM |  | < 1250 µM |  |
| NNC12CC3CC(CC(C1)c1ccccc13)O2 | > 1000 µM | inactive |  |  |
| NC12CC3CC(CC(C1)c1ccccc13)O2 | > 1000 µM | inactive |  |  |
| CN(C)C12CC3CC(C)(CC(C1)c1ccccc13)O2 | > 1000 µM | inactive |  |  |
| NC12CC3CC(F)(CC(C1)c1ccccc13)C2 | 95 µM (≈ 22 µg/mL) | inactive | < 312 µM |  |
| CN(Cc1ccccc1)C12CC3CC(C)(CC(C1)c1ccccc13)C2 | > 1000 µM | inactive |  |  |
| NC12CC3CC(C1)c1ccccc1C(C3)C2 | 17 µM (≈ 3.63 µg/mL) | inactive | > 39 µM | Selectivity Index [2]: 3.4; CC50 [3]: 58.5 µM |
| CN(C)C12CC3CC(Cl)(CC(C1)c1ccccc13)C2 | < 625 µM |  | < 1250 µM |  |
| CN(C)C12CC3CC(F)(CC(C1)c1ccccc13)C2 | > 1000 µM | inactive |  |  |
| CN(C)C12CC3CC(O)(CC(C1)c1ccccc13)C2 | > 1000 µM |  | > 10000 µM | CC50 [3]: > 100 µM; MIC50 (Pseudomonas aeruginosa; [14]): < 2500 µM; MIC (Pseudomonas aeruginosa; [14]): 5 mM (≈ 1290 µg/mL) |
| C#CCNC12CC3CC(CC(C1)c1ccccc13)O2 | > 1000 µM | inactive |  |  |
| Nc1ccc2c(c1)C1CC3(N)CC2CC(F)(C1)C3 (stereo not given) | < 375 µM |  | < 1250 µM |  |
| Cl.NC12CC3CC(Cl)(CC(C1)c1ccccc13)C2 | 36 µM |  | < 156 µM | Selectivity Index [2]: 10.1; Selectivity Index [4]: 6.05; MIC50 [5]: 60 µM; MIC ([5]; read-out: MIC100): > 250 µM; MIC50 [6]: 75 µM; MIC ([6]; read-out: MIC100): < 250 µM; Selectivity Index [7]: 6.05; MIC50 [8]: 60 µM; MIC ([8]; read-out: MIC100): > 250 µM; Selectivity Index [9]: 4.84; CC50 [3]: 363 µM; MIC50 (Staphylococcus aureus [10]): 75 µM; MIC (Staphylococcus aureus [10]; read-out: MIC100): < 180 µM; MIC50 (Burkholderia cenocepacia): < 125 µM; MIC (Burkholderia cenocepacia; read-out: MIC100): > 250 µM; MIC50 (Pseudomonas aeruginosa; [14]): 1250 µM; MIC (Pseudomonas aeruginosa; [14]): > 1.25 mM; Selectivity Index [11]: 4.84; MBIC50 (Staphylococcus aureus [12]): 45 µM; Activity (Staphylococcus aureus [13]): Active |
| CC12CC3CC(N)(CC(C1)c1ccccc13)C2 | > 1000 µM | inactive |  |  |
| CCN(CC)C12CC3CC(C)(CC(C1)c1ccccc13)O2 | > 1000 µM | inactive |  |  |
| CN(C)C12CC3CC(C)(CC(C1)c1ccccc13)C2 | > 1000 µM | inactive |  |  |
